Data on three compounds can be found in paper PMC11413853, “Discovery of VU6007496: Challenges in the Development of an M1 Positive Allosteric Modulator Backup Candidate” (ACS Chemical Neuroscience, 2024).

Read-outs that look alike come from different tables or passages of the source.

In general, Kp refers to the ratio of the level in a tissue or fluid to that in plasma or blood. The % Inhibition is the relative decrease from the control value, in per cent. A high value points to a strong effect.

Series [1] is described as follows: Predicted hepatic clearance, dog. It counts as in vitro ADME. As to the method:
The diluted fraction unbound (fu2) in brain was calculated in the same manner by using brain homogenate rather than plasma. Undiluted fraction unbound for the brain was calculated using […]
Equation 5 Determination of fraction unbound in brain. Fu2 represents the diluted fraction […]
Intrinsic clearance: Human or rat hepatic microsomes (0.5 mg/mL) and 1 µM test compound were incubated in 100 mM potassium phosphate pH 7.4 buffer with 3 mM MgCl2 at 37 °C with constant shaking. After a 5 min preincubation, the reaction was initiated by the addition of NADPH (1 mM). At selected time intervals (0, 3, 7, 15, 25, and 45 min), aliquots were taken and subsequently placed into a 96-well plate containing cold acetonitrile with internal standard (50 ng/mL carbamazepine). Plates were then centrifuged at 3000 rcf (4 °C) for 10 min, and the supernatant was transferred to a separate 96-well plate and diluted 1:1 with water for LC/MS/MS analysis. The in vitro half-life ( 1/2, min, Eq. 1), intrinsic clearance (CLint, mL/min/kg, Eq. 2), and subsequent predicted hepatic clearance (CLhep, mL/min/kg, Eq. 3) was determined employing the […]
Samples were analyzed on a Thermo Electron TSQ Quantum Ultra triple quad mass spectrometer (San Jose, CA) via electrospray ionization (ESI) with two Themo Electron Accella pumps (San Jose, CA), and a Leap Technologies CTC PAL autosampler (Carrboro, NC). […]

Series [2] can be described thus: Rat plasma and brain exposure, 100 mg/kg i.p., 3 h. It counts as in vivo. The following applies: ip; for Kp at 3 h: brain and plasma, 100 mg/kg i.p.; for concentration at 3 h: 100 mg/kg i.p. in 30% captisol. From the text: Due to the prevalence of metabolite A (VU6036463, 24) in both in vitro preparations and in vivo, we first synthesized and characterized 24. Utilizing intermediate 19 (Scheme 3), a Suzuki coupling with benzyl chloride 28 afforded a mixture of N-Boc protected analog 29 and N-H analog 29a in moderate isolated yield. Hydrolysis of the nitriles to the carboxylic acid, followed by a HATU-mediated coupling with tetrahydro-2H-pyran-4-amine delivered 24 in 81% yield over the two steps.[21] In our kinetic assays, 24 was an “active” metabolite, with the profile of an M1 ago-PAM. […] To ascertain if 24 could be the source of the adverse cholinergic events in rats, we dosed 11 and 24, in parallel, at a dose of 100 mg/kg i.p. in 30% captisol and prepared plasma and brain samples at a 3-h time point to determine brain exposure of the M1 ago-PAM 24. In this study, 11 achieved a total plasma concentration of 3.6 μM and a total brain concentration of 0.93 μM (Kp = 0.26).

Series [3] in a line: IV/PO pharmacokinetics, dog. The series is classed as in vivo, dog (beagle or mongrel). As to conditions: for clearance / Vd / half-life: plasma, 1 mg/kg; for clearance: read-out: CLp; for Vd: read-out: Vss; for half-life: read-out: elimination t1/2 (converted). An excerpt: We next conducted multispecies IV/PO PK in parallel as a potential discerning data set.
Series [4] can be described thus: Plasma protein binding, dog. The series is classed as in vitro ADME. As to conditions: pH 7.4, read-out: fu,plasma dog. As to the method:
Plasma protein binding and Brain homogenate binding: Determination of fraction unbound (f u) in plasma was conducted in vitro via equilibrium dialysis using HTDialysis (HTD) membrane plates. The top half of the plate was filled with 100 uL of Dubelco’s Phosphate Buffered Saline, pH 7.4 (DPBS). Compounds were diluted into plasma from each species (5 µM final concentration), which was aliquoted in triplicate to the ‘bottom half’ of the prepared HTD plate wells. The HTD plate was sealed and incubated for 6 hours at 37 °C. Following incubation, each well (both top and bottom halves) were transferred (20 µL) to the corresponding wells of a 96-shallow-well (V-bottom) plate. […]
The unbound fraction (f u) was calculated following the equation below, and mean values for each species were calculated from 3 replicates.
A similar approach was used to determine the degree of brain homogenate binding, which employed the same methodology and procedure with the following modifications: 1) a final compound concentration of 1 μM was used, 2) naïve rat brains were homogenized in DPBS (1:3 composition of brain: DPBS, w/w) using a Mini-Bead Beater™ machine in order to obtain brain homogenate, which was then treated in the same manner as the plasma samples in the previously described plasma protein binding assay. Fraction unbound for both plasma and brain samples was determined using Equation 4. […]

For series [5], the system named is Melatonin MT1. As to the kind of experiment: Eurofins radioligand binding. Also noted: species or system Human. As to conditions: specific binding.
Where [6] appears, read: brain, read-out: total brain concentration.
Setting [7] is: plasma, read-out: total plasma concentration.

On to `Cn1ccc(-c2ccc(Cc3cc(C(=O)NC4CCOCC4)nc4ccn(C)c34)cc2)n1` [compound 11], for which, in series [1], the “Predicted CLhep, dog” value was 14 mL/min/kg. Also, the Kp at 3 h in series [2] turned out to be 0.26. Further, the concentration at 3 h in series [2] (setting [6]) is 930 nM. In addition, the concentration at 3 h in series [2] (setting [7]) is 3600 nM. Also, in series [3] (dose iv/po 1/5 mg/kg), the “F (%) po” value is 35%, the clearance stood at 2.4 mL/min/kg, the Vd was 2.2 L/kg and the half-life is 12.8 h. For the same compound, the fraction unbound at 6 h, 5 µM in series [4] was found to be 0.06. Besides, in series [5], the “% Inhibition at 10 µM” value came out at 7%.
For `Cn1ccc(-c2ccc(Cc3cc(C(=O)NC4CCOCC4)nc4ccsc34)cc2)n1` [compound 12], the “Predicted CLhep, dog” value in series [1] is on record as 16 mL/min/kg. Also, in series [3] (dose iv/po 1/3 mg/kg), the “F (%) po” value is 9%, the clearance is 1.3 mL/min/kg, the Vd is 4 L/kg and the half-life is 36.6 h. Besides, the fraction unbound at 6 h, 5 µM in series [4] was 0.018. The “% Inhibition at 10 µM” value in series [5] was found to be 70%.
Regarding `Cn1ccc2nc(C(=O)NC3CCOCC3)cc(Cc3ccc(-c4cc[nH]n4)cc3)c21` [compound 24], the Kp at 3 h in series [2] is 0.07. Also, the values for the concentration at 3 h in series [2] (setting [6]) and in series [2] (setting [7]) were 80 nM and 1200 nM, respectively.
